Assay results: the supplement of paper PMC10011410
± gives the standard deviation of the averaged measurements.

Columns and labels:
U-2 OS [1] = assay: cell viability (CellTiter-Glo) relative to DMSO (% of control); higher = more viable; conditions: 24 h
Protocol: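 Cell viability of U-2 OS cells by CellTiter-Glo after 24 h compound treatment at 5, 10 and 20 uM (some at 40 and 80 uM), measured in parallel with the glutathione assay, as percent of DMSO control. Five technical replicate plates, averaged.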

U-2 OS [2] = assay: relative cell count vs DMSO (cell painting) (fraction of DMSO control); higher = more cells remaining (less cytotoxic); conditions: 24 h
Outline: (§1)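 Using 384-well plates holding about 1,500 U-2 OS cells per well, treatment was applied by pin tool for 24 h at 37 °C, generally at six 2-fold concentrations ranging from 20 μM to 625 nM. Staining with MitoTracker, concanavalin A, phalloidin, wheat germ agglutinin, Hoechst and SYTO 14 preceded Opera Phenix imaging and CellProfiler feature extraction against DMSO cells on the same plate. Activity score and cell count are both referenced to DMSO wells, the former as a Mahalanobis distance. Four replicate plates were averaged for every value.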

U-2 OS [3] = assay: cell painting activity score (Mahalanobis distance from DMSO wells); higher = stronger morphological phenotype; conditions: 24 h
Outline: as §1

U-2 OS [4] = assay: total intracellular glutathione (GSH + GSSG) relative to DMSO (% of control); higher = more glutathione; conditions: 24 h
Protocol: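 Total intracellular glutathione (GSH + GSSG) in U-2 OS cells by GSH/GSSG-Glo after 24 h compound treatment at 5, 10 and 20 uM (some at 40 and 80 uM), as percent of DMSO control. Five technical replicate plates, averaged.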

U-2 OS [5] = assay: AUC of culture confluence over time (live-cell imaging) (AUC (confluence % x time)); higher = more confluent culture (less growth inhibition)
Outline: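 Using an Incucyte S3 with a 10x objective, confluence of U-2 OS cells was imaged every 4 h for up to 60 h at 37 °C. The cells had been seeded at 750 per well in 384-well plates in F-12K medium with 10% FBS and treated by pin tool 24 h later, most compounds at 20, 10 and 5 μM with 0.2% DMSO. The value given is the area under the confluence-versus-time curve.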

U-2 OS [6] = assay: intracellular GSH:GSSG ratio (calculated); higher = more reduced glutathione pool; conditions: 24 h
Protocol: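 Intracellular glutathione in U-2 OS cells after 24 h compound treatment at 5, 10 and 20 uM (some at 40 and 80 uM). Total glutathione and GSSG were measured with the GSH/GSSG-Glo kit, and the GSH:GSSG ratio was calculated. Mean of five technical replicate plates.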

SMILES	cell viability (U-2 OS [1]; 5 µM)	cell viability (U-2 OS [1]; 10 µM)	cell viability (U-2 OS [1]; 20 µM)	relative cell count (U-2 OS [2]; 0.625 µM)	relative cell count (U-2 OS [2]; 1.25 µM)	relative cell count (U-2 OS [2]; 2.5 µM)	relative cell count (U-2 OS [2]; 5 µM)	relative cell count (U-2 OS [2]; 10 µM)	relative cell count (U-2 OS [2]; 20 µM)	cell painting activity score (U-2 OS [3]; 0.625 µM)	cell painting activity score (U-2 OS [3]; 1.25 µM)	cell painting activity score (U-2 OS [3]; 2.5 µM)	cell painting activity score (U-2 OS [3]; 5 µM)	cell painting activity score (U-2 OS [3]; 10 µM)	cell painting activity score (U-2 OS [3]; 20 µM)	total intracellular glutathione (U-2 OS [4]; 5 µM)	total intracellular glutathione (U-2 OS [4]; 10 µM)	total intracellular glutathione (U-2 OS [4]; 20 µM)	AUC of culture confluence over time (U-2 OS [5]; 5 µM)	AUC of culture confluence over time (U-2 OS [5]; 10 µM)	AUC of culture confluence over time (U-2 OS [5]; 20 µM)	intracellular GSH:GSSG ratio (U-2 OS [6]; 5 µM)	intracellular GSH:GSSG ratio (U-2 OS [6]; 10 µM)	intracellular GSH:GSSG ratio (U-2 OS [6]; 20 µM)	cell viability (U-2 OS [1]; 40 µM)	cell viability (U-2 OS [1]; 80 µM)	intracellular GSH:GSSG ratio (U-2 OS [6]; 40 µM)	total intracellular glutathione (U-2 OS [4]; 40 µM)	total intracellular glutathione (U-2 OS [4]; 80 µM)	relative cell count (U-2 OS [2]; 40 µM)	relative cell count (U-2 OS [2]; 80 µM)	cell painting activity score (U-2 OS [3]; 40 µM)	cell painting activity score (U-2 OS [3]; 80 µM)
O=C1C(Cl)=C(NCCN2CCOCC2)C(=O)c2ncccc21	0.868 ± 0.067	0.657 ± 0.091	0.819 ± 0.053	0.808	0.755	0.474	0.317	0.049	0.0399	5.61	10.4	14.7	21.2	26.9	26.9	1.89 ± 0.18	2.12 ± 0.18	1.91 ± 0.3	16.5	14.9	12	–	–	–	–	–	–	–	–	–	–	–	–
O=[N+]([O-])c1c(Sc2ncnc3nc[nH]c23)cc(Cl)c2nsnc12	41.6 ± 9.6	5.86 ± 1.9	12 ± 2.9	0.924	0.936	0.903	0.912	0.96	0.913	3.42	4.43	4.96	4.68	3.76	3.8	74 ± 19	32.4 ± 4.7	43.3 ± 3.9	–	–	–	9.07	1.18	2.18	–	–	–	–	–	–	–	–	–
CC1=C(CO)C(=O)O[C@H](C(C)[C@H]2CC[C@@H]3[C@H]4C[C@H]5O[C@@]56[C@@H](O)C=CC(=O)[C@@]6(C)C4CC[C@@]23C)C1 (stereo partly specified)	55.7 ± 8.4	42.7 ± 2	59.4 ± 12	0.988	0.352	0.402	0.38	0.146	0.0181	10.3	16.1	17.1	17.6	29	20.3	43.6 ± 5.1	39.2 ± 4.1	32.8 ± 3.3	–	–	–	1.55	4.28	0.143	–	–	–	–	–	–	–	–	–
c1cc(SSc2ccns2)sn1	94.5 ± 3.6	62.9 ± 10	29 ± 8.2	0.85	0.816	0.752	0.635	0.137	0.116	5.35	4.46	6.31	8.63	14.8	17.2	93.2 ± 6.5	67.1 ± 14	31.5 ± 34	–	–	–	24.1	6.28	4.87	2.06 ± 0.76	0.459 ± 0.058	0.0649	25.6 ± 43	22.5 ± 43	–	–	–	–
NC1CS(=O)(=O)c2ccccc21 (stereo unspecified)	56.6 ± 6.3	58 ± 7.3	56.7 ± 7.8	0.986	1.06	1.06	1.07	1.06	1.04	4.42	4.19	4.72	3.88	3.43	4.56	51.9 ± 5.3	51.6 ± 4.8	45.5 ± 3.2	–	–	–	3.24	–	–	–	–	–	–	–	–	–	–	–
COC1=CC=C(S(=O)(O/N=C2C=C(C(C(C)=C\2)=O)C)=O)C=C1	31.2 ± 1.5	15.9 ± 2	9.58 ± 10	1.01	0.93	0.9	0.718	0.17	0.237	4.25	8.9	10.5	12	16.6	24.6	59.9 ± 4	41.1 ± 5.9	6.59 ± 2.2	–	–	–	4.85	2.61	–	0.28 ± 0.061	0.124 ± 0.018	–	0.79 ± 0.15	0.604 ± 0.13	0.146	0.0922	22.8	20.4
COc1cc([C@@H]2c3cc4c(cc3[C@@H](O[C@@H]3O[C@@H]5CO[C@@H](C)O[C@H]5[C@H](O)[C@H]3O)[C@H]3COC(=O)[C@H]23)OCO4)cc(OC)c1O	–	–	–	0.661	0.635	0.568	0.604	0.551	0.536	11.9	14	12.9	14.6	14.4	15.2	–	–	–	26.2	24.8	18.3	–	–	–	–	–	–	–	–	–	–	–	–
O=NN(CCCl)C(=O)NC1CCCCC1	–	–	–	0.975	0.937	0.985	0.988	0.963	0.875	3.56	4.22	4.72	4.42	4.76	7.36	–	–	–	46.1	48.4	47.4	–	–	–	–	–	–	–	–	–	–	–	–
